From ChEMBL document CHEMBL1136575, “Pyridazinones as selective cyclooxygenase-2 inhibitors” (Bioorg Med Chem Lett, 2003)

Experiments:
[1] = target: Prostaglandin G/H synthase 1 (Homo sapiens, UniProt P23219); assay: In vitro inhibitory activity against sensitive U-937 microsomal prostaglandin G/H synthase 1
[2] = target: T1, Prostaglandin G/H synthase 2 (Homo sapiens, UniProt P35354); assay: In vitro inhibitory activity against prostaglandin G/H synthase 2 stably transfected in Human whole blood (HWB) cell; type: tissue-based
T1 sequence (P35354 whole entry): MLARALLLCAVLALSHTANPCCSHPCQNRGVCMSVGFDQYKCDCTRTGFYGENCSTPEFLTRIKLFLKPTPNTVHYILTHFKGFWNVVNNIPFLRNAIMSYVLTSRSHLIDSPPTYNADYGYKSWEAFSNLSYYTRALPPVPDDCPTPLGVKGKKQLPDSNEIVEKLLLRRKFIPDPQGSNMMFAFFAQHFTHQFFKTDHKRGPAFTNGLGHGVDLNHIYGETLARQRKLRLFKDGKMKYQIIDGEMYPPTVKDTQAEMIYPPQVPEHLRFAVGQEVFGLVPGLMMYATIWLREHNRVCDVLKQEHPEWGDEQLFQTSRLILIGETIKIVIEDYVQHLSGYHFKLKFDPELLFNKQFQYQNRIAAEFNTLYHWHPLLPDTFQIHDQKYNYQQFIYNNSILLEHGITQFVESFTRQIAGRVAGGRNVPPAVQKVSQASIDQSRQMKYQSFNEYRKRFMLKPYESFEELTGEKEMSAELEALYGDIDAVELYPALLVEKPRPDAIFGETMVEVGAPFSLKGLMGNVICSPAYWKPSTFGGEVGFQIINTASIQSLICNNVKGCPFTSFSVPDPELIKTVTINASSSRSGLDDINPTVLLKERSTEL

[3] = target: T1, Prostaglandin G/H synthase 2; assay: In vitro inhibitory activity against prostaglandin G/H synthase 2 stably transfected in Chinese hamster ovary (CHO) cells; type: cell-based
[4] = Cmax value was determined after peroral administration of 20 mg/kg in rat; type: ADME, organism-based; set-up: dose 20 mg/kg, route oral; conditions: in vivo, po
Rattus norvegicus [5] = assay: Effective dose of the Compound was determined in vivo by using rat paw edema assay; type: functional
Rattus norvegicus [6] = assay: Percent inhibition was determined in vivo by using rat paw edema assay at 10 mg/kg; type: functional
Rattus norvegicus [7] = assay: Effective dose of the Compound was determined in vivo by using rat pyresis assay; type: functional

Prostaglandin G/H synthase 1, sequence (P23219 whole entry): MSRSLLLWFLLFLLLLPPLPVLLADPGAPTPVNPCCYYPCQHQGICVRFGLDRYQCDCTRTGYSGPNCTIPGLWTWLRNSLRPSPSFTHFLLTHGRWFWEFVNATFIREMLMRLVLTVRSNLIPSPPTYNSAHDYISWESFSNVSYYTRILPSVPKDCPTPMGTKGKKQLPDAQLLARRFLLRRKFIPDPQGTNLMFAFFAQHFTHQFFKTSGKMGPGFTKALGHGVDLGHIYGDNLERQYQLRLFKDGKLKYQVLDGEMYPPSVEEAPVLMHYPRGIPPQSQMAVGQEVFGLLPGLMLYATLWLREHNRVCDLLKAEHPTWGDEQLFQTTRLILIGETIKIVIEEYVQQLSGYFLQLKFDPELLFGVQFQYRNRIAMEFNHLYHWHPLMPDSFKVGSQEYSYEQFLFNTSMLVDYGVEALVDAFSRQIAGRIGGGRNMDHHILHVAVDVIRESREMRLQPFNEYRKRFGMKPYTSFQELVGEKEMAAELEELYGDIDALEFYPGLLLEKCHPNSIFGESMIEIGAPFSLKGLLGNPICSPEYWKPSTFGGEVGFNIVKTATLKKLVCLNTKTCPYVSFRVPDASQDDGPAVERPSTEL

| SMILES | IC50 [1] [µM] | IC50 [2] [µM] | IC50 [3] [µM] | Cmax [4] [µM] | ED50 (Rattus norvegicus [5]) [mg/kg] | inhibition in vivo at 10 mg/kg (Rattus norvegicus [6]) [%] | ED50 (Rattus norvegicus [7]) [mg/kg] |
| --- | --- | --- | --- | --- | --- | --- | --- |
| CC1(Cn2ncc(-c3ccc(S(C)(=O)=O)cc3)c(-c3ccc(F)cc3)c2=O)CC1 | 3 | 0.7 | 0.2 |  |  |  |  |
| CS(=O)(=O)c1ccc(-c2cnn(Cc3cccnc3)c(=O)c2-c2ccccc2)cc1 | 10 | 7.1 | 1.3 |  |  |  |  |
| Cn1ncc(-c2ccc(S(C)(=O)=O)cc2)c(-c2ccccc2)c1=O |  |  | 0.3 |  |  |  |  |
| CS(=O)(=O)c1ccc(-c2cnn(Cc3ccccc3)c(=O)c2Sc2ccccc2)cc1 | 10 | 5.9 | 0.37 |  |  |  |  |
| Cc1ccc(-c2c(-c3ccc(S(C)(=O)=O)cc3)cnn(Cc3ccccc3)c2=O)cn1 | > 10 |  |  | 4.2 | > 10 |  |  |
| CS(=O)(=O)c1ccc(-c2cnnc(O)c2-c2ccccc2)cc1 | > 10 | > 33 | > 5 |  |  |  |  |
| CS(=O)(=O)c1ccc(-c2cnn(CCC3CC3)c(=O)c2-c2ccc(F)cc2)cc1 | > 10 | 2.9 | 0.2 |  |  |  |  |
| CS(=O)(=O)c1ccc(-c2cnn(Cc3ccccc3)c(=O)c2OCC2CC2)cc1 | 10 | 0.36 | 0.003 | 0.8 | > 10 |  |  |
| CS(=O)(=O)c1ccc(-c2cnn(Cc3ccccc3)c(=O)c2-c2ccccc2)cc1 | 10 |  |  | 1 |  |  |  |
| CC(C)(C)n1ncc(-c2ccc(S(C)(=O)=O)cc2)c(-c2ccccc2)c1=O | > 10 | > 33 | > 5 |  |  |  |  |
| C[C@@H]1C[C@H]1Cn1ncc(-c2ccc(S(C)(=O)=O)cc2)c(-c2ccc(F)cc2)c1=O | 10 | 1.7 | 0.06 | 4.8 |  | 40 |  |
| CS(=O)(=O)c1ccc(-c2cnn(CC3CC3)c(=O)c2-c2ccc(F)cc2)cc1 | > 10 |  |  | 8.5 | 10 |  |  |
| Cc1ccc(-c2c(-c3ccc(S(C)(=O)=O)cc3)cnn(Cc3ccccc3)c2=O)cc1 | > 10 |  | 0.02 | 2.7 | 2.2 |  | > 10 |
| CS(=O)(=O)c1ccc(-c2cnn(Cc3nccs3)c(=O)c2-c2ccc(F)cc2)cc1 | 10 | 5.9 | 0.6 |  |  |  |  |
| CS(=O)(=O)c1ccc(-c2cnn(Cc3ccccc3)c(=O)c2Oc2ccc(F)cc2)cc1 | 1 |  |  |  | > 10 |  |  |
| CS(=O)(=O)c1ccc(-c2cnn(CC3CCCCC3)c(=O)c2-c2ccc(F)cc2)cc1 | 1 |  |  |  |  |  |  |
| CC(C)=CCn1ncc(-c2ccc(S(C)(=O)=O)cc2)c(-c2ccc(F)cc2)c1=O | 3 |  |  |  |  |  |  |
| C[C@H]1C[C@@H]1Cn1ncc(-c2ccc(S(C)(=O)=O)cc2)c(-c2ccc(F)cc2)c1=O | 3 | 0.3 | 0.06 | 16 | 0.7 |  | 1.1 |
| CS(=O)(=O)c1ccc(-c2cnn(C3CC3)c(=O)c2-c2ccc(F)cc2)cc1 | 10 |  |  |  |  |  |  |
| CS(=O)(=O)c1ccc(-c2cnn(Cc3ccccc3)c(=O)c2Oc2ccc(Cl)cn2)cc1 | 10 |  |  |  |  |  |  |
| CS(=O)(=O)c1ccc(-c2cnn(Cc3cccs3)c(=O)c2-c2ccc(F)cc2)cc1 | 1 |  |  |  |  |  |  |
| CS(=O)(=O)c1ccc(-c2cnn(-c3ccccc3)c(=O)c2-c2ccccc2)cc1 | > 10 |  |  |  |  |  |  |
| CC(C)Oc1c(-c2ccc(S(C)(=O)=O)cc2)cnn(Cc2ccccc2)c1=O | > 10 |  |  | 2.8 | < 0.3 |  | < 0.3 |
| CC1(C)CC1Cn1ncc(-c2ccc(S(C)(=O)=O)cc2)c(-c2ccc(F)cc2)c1=O (racemic) | 3 | 0.7 | 0.03 |  |  |  |  |
| CC(C1CC1)n1ncc(-c2ccc(S(C)(=O)=O)cc2)c(-c2ccc(F)cc2)c1=O (racemic) | 10 | 0.7 | 0.2 | 13 | 1.8 |  | > 10 |
| C[C@H]1C[C@H]1Cn1ncc(-c2ccc(S(C)(=O)=O)cc2)c(-c2ccc(F)cc2)c1=O (racemic) | 10 | 2.4 | 0.05 |  |  |  |  |
| C[C@H]1C(Cn2ncc(-c3ccc(S(C)(=O)=O)cc3)c(-c3ccc(F)cc3)c2=O)[C@@H]1C (mixture of isomers) | 3 | 0.7 | 0.05 |  |  |  |  |
